Source: patent US8269012B2, “Aminopyrazole triazolothiadiazole inhibitors of c-met protein kinase” (Vertex Pharmaceuticals Incorporated, priority 2009, dated 2012)

Experiments:
[1] = system: SNU-5 gastric cancer cells; test: Inhibition of tumor growth of subcutaneously implanted SNU-5 cells in SCID mice; type: in vivo; conditions: all three dose levels tested (3, 10, 30 mg/kg/day)
Protocol: Compound 3 was investigated for its ability to inhibit tumor growth of subcutaneously implanted SNU-5 gastric cancer cells in severe combined immunodeficient (SCID) mice. SNU-5 cells (CRL-5973, American Type Culture Collection, Manassas, Va.) were cultured in ISCOVE's Modified Dulbecco's Medium (IMDM) (Invitrogen, Carlsbad, Calif.) supplemented with 10% fetal bovine serum (FBS) (Hyclone, Logan, Utah), 100 units/mL of penicillin, […] of streptomycin (Invitrogen, Carlsbad, Calif.), and 2 mM L-glutamine. Cells were cultured for fewer than 4 passages prior to implantation. Female SCID mice (Fox Chase SCID, CB-17, mice weighing 17 to 19 g obtained from Charles River Laboratories, Wilmington, MA) were injected subcutaneously (s.c.) with 5×10^6 SNU-5 cells into the right dorsal axillary region on Day 0. […]
Compound 3, formulated in a vehicle containing 30% (w/v) Propylene Glycol and 10% Solutol (Sigma-Aldrich, St Louis, Mo.) as a suspended homogenous form, was administered orally (p.o.) once daily (QD) at total daily doses of 3, 10, and 30 mg/kg/day for 14 days. Tumor volumes (calculated using the ellipsoid formula, […], where length and width represented the largest and smallest dimensions of the tumor, respectively) were recorded for two weeks after the initiation of treatment. […]

[2] = system: A549HGF cells; test: Inhibition of tumor metastasis to the lungs, subcutaneous A549HGF tumors in SCID mice; type: in vivo
Protocol: Compound 3 was investigated for its ability to inhibit the metastasis of subcutaneously implanted tumors to the lungs of severe combined immunodeficient (SCID) mice. Accordingly, A549 cells (A549HGF-1m1115, transfected with hepatocyte growth factor, luciferase, and green fluorescent protein) were cultured in RPMI1640 medium (Invitrogen, Carlsbad, Calif.) supplemented with 10% fetal bovine serum (FBS) (Hyclone, Logan, Utah), 100 units/mL of penicillin, […] of streptomycin (Invitrogen, Carlsbad, Calif.), and 2 mM L-glutamine for fewer than 4 passages prior to implantation. […]
Female SCID mice were injected subcutaneously (s.c.) with 5×10^6 A549HGF cells into the right dorsal axillary region on Day 0. […] Ectopic tumor measurements were recorded twice a week for 3 weeks after the initiation of treatment.
In order to evaluate the anti-metastatic potential of Compound 3, at the termination of the study all animal lung tissues were harvested and lysed by homogenization for ex vivo quantification via luciferase luminescence.

For `Cn1cc(Nc2nn3c(C(F)(F)c4ccc5ncccc5c4)nnc3s2)cn1` [Compound 3, 3-(Difluoro(quinolin-6-yl)methyl)-N-(1-methyl-1H-pyrazol-4-yl)-[1,2,4]triazolo[3,4-b][1,3,4]thiadiazol-6-amine], the anti-tumor activity [1] was “significant and dose-dependent anti-tumor activity”, the “formation of lung metastases” value ([2]; 60 mg/kg/day compared to vehicle controls, p<0.02) was “significantly inhibits the formation of lung metastases” and the “change in primary A549 tumor cell growth at the site of implantation vs vehicle” value ([2]; 30 or 60 mg/kg/day p.o. QD, 22 days) was “no significant change”.
